According to ChEMBL document CHEMBL1141271, “Laurendecumallenes A-B and laurendecumenynes A-B, halogenated nonterpenoid C(15)-acetogenins from the marine red alga Laurencia decumbens” (J Nat Prod, 2007):

System: A549
Assay: Cytotoxicity against human A549 cells
Format: functional, cell-based

SMILES	IC50
CC[C@H]1O[C@@H]2C[C@@H](C=C=CBr)O[C@@H]2C[C@@H](O)[C@H](O)C[C@@H]1Br [LAURENDECUMALLENE A]	> 10 µg/mL
C#C/C=C\C[C@H]1O[C@@H]2C[C@H](Br)[C@@H](CC)O[C@H]1C[C@H]2OO [LAURENDECUMENYNE A]	> 10 µg/mL
C#C/C=C\C[C@@H]1O[C@@H]2C[C@H](Br)[C@H](CC)O[C@@H]2C[C@@H]1Cl [LAURENDECUMENYNE B]	> 10 µg/mL
CC[C@@H](Br)[C@H]1C[C@H](O)[C@H](O)C[C@H]2O[C@H](C=C=CBr)C[C@H]2O1 [LAURENDECUMALLENE B]	> 10 µg/mL
C#C/C=C\C[C@@H]1O[C@@H]2C[C@H](Br)[C@H](CC)O[C@@H]2C[C@@H]1Br	> 10 µg/mL
